Measured values published in patent EP4464309A1, “ANTIDANDRUFF COMPOSITION COMPRISING 1-ACETOXYCHAVICOL ACETATE” (Analyticon Discovery GmbH, priority 2023, dated 2024).
Read-outs that look alike come from different tables or passages of the source.

Columns and labels:
[1] = Chemical stability of 2% solutions of 1-acetoxychavicol acetate on storage, followed by HPLC; assay type: physicochemical; details: solutions of up to 5 wt.-percent in vegetable oil, e.g. sunflower or rape seed oil; even at higher temperatures
[2] = as above; assay type: physicochemical
Experimental: 1-acetoxychavicol acetate was dissolved as a 2% solution in water ethanol (70:30), an aqueous shampoo formulation, and in various vegetable oils. […] Table 1 Assessment of stability of 2% solutions of 1-acetoxychavicol acetate in wt.-percent over time

[3] = cited from earlier work

C=CC(OC(C)=O)c1ccc(OC(C)=O)cc1 (centres unmarked) [1-acetoxychavicol acetate]
instable: stability ([3]; in aqueous solution) | stability ([3]; under thermal treatment, e.g. distillation)
80 wt.-percent: stability of 2% solutions of 1-acetoxychavicol acetate ([2]; Aq. Ethanol, storage time 1 w) | stability of 2% solutions of 1-acetoxychavicol acetate ([2]; Shampoo, storage time 1 w)
100 wt.-percent: stability of 2% solutions of 1-acetoxychavicol acetate ([2]; Aq. Ethanol, storage time 0 w) | stability of 2% solutions of 1-acetoxychavicol acetate ([2]; HO Rape seed oil, storage time 0 w) | stability of 2% solutions of 1-acetoxychavicol acetate ([2]; HO Rape seed oil, storage time 1 w) | stability of 2% solutions of 1-acetoxychavicol acetate ([2]; HO Rape seed oil, storage time 2 w) | stability of 2% solutions of 1-acetoxychavicol acetate ([2]; HO Rape seed oil, storage time 3 w) | stability of 2% solutions of 1-acetoxychavicol acetate ([2]; HO Rape seed oil, storage time 4 w) | stability of 2% solutions of 1-acetoxychavicol acetate ([2]; HO Rape seed oil, storage time 5 w) | stability of 2% solutions of 1-acetoxychavicol acetate ([2]; HO Rape seed oil, storage time 6 w) | stability of 2% solutions of 1-acetoxychavicol acetate ([2]; HO Rape seed oil, storage time 7 w) | stability of 2% solutions of 1-acetoxychavicol acetate ([2]; HO Rape seed oil, storage time 8 w) | stability of 2% solutions of 1-acetoxychavicol acetate ([2]; HO Rape seed oil, storage time 9 w) | stability of 2% solutions of 1-acetoxychavicol acetate ([2]; HO Rape seed oil, storage time 10 w) | stability of 2% solutions of 1-acetoxychavicol acetate ([2]; HO Rape seed oil, storage time 15 w) | stability of 2% solutions of 1-acetoxychavicol acetate ([2]; HO Rape seed oil, storage time 20 w) | stability of 2% solutions of 1-acetoxychavicol acetate ([2]; HO Sunflower oil, storage time 0 w) | stability of 2% solutions of 1-acetoxychavicol acetate ([2]; HO Sunflower oil, storage time 1 w) | stability of 2% solutions of 1-acetoxychavicol acetate ([2]; HO Sunflower oil, storage time 2 w) | stability of 2% solutions of 1-acetoxychavicol acetate ([2]; HO Sunflower oil, storage time 3 w) | stability of 2% solutions of 1-acetoxychavicol acetate ([2]; HO Sunflower oil, storage time 4 w) | stability of 2% solutions of 1-acetoxychavicol acetate ([2]; HO Sunflower oil, storage time 5 w) | stability of 2% solutions of 1-acetoxychavicol acetate ([2]; HO Sunflower oil, storage time 6 w) | stability of 2% solutions of 1-acetoxychavicol acetate ([2]; HO Sunflower oil, storage time 7 w) | stability of 2% solutions of 1-acetoxychavicol acetate ([2]; HO Sunflower oil, storage time 8 w) | stability of 2% solutions of 1-acetoxychavicol acetate ([2]; HO Sunflower oil, storage time 9 w) | stability of 2% solutions of 1-acetoxychavicol acetate ([2]; HO Sunflower oil, storage time 10 w) | stability of 2% solutions of 1-acetoxychavicol acetate ([2]; HO Sunflower oil, storage time 15 w) | stability of 2% solutions of 1-acetoxychavicol acetate ([2]; Olive oil, storage time 0 w) | stability of 2% solutions of 1-acetoxychavicol acetate ([2]; Olive oil, storage time 1 w) | stability of 2% solutions of 1-acetoxychavicol acetate ([2]; Olive oil, storage time 2 w) | stability of 2% solutions of 1-acetoxychavicol acetate ([2]; Olive oil, storage time 3 w) | stability of 2% solutions of 1-acetoxychavicol acetate ([2]; Olive oil, storage time 4 w) | stability of 2% solutions of 1-acetoxychavicol acetate ([2]; Olive oil, storage time 5 w) | stability of 2% solutions of 1-acetoxychavicol acetate ([2]; Olive oil, storage time 6 w) | stability of 2% solutions of 1-acetoxychavicol acetate ([2]; Peanut oil, storage time 0 w) | stability of 2% solutions of 1-acetoxychavicol acetate ([2]; Peanut oil, storage time 1 w) | stability of 2% solutions of 1-acetoxychavicol acetate ([2]; Peanut oil, storage time 2 w) | stability of 2% solutions of 1-acetoxychavicol acetate ([2]; Peanut oil, storage time 3 w) | stability of 2% solutions of 1-acetoxychavicol acetate ([2]; Peanut oil, storage time 4 w) | stability of 2% solutions of 1-acetoxychavicol acetate ([2]; Peanut oil, storage time 5 w) | stability of 2% solutions of 1-acetoxychavicol acetate ([2]; Peanut oil, storage time 6 w) | stability of 2% solutions of 1-acetoxychavicol acetate ([2]; Sesame oil, storage time 0 w) | stability of 2% solutions of 1-acetoxychavicol acetate ([2]; Sesame oil, storage time 1 w) | stability of 2% solutions of 1-acetoxychavicol acetate ([2]; Sesame oil, storage time 2 w) | stability of 2% solutions of 1-acetoxychavicol acetate ([2]; Sesame oil, storage time 3 w) | stability of 2% solutions of 1-acetoxychavicol acetate ([2]; Sesame oil, storage time 4 w) | stability of 2% solutions of 1-acetoxychavicol acetate ([2]; Sesame oil, storage time 5 w) | stability of 2% solutions of 1-acetoxychavicol acetate ([2]; Sesame oil, storage time 6 w) | stability of 2% solutions of 1-acetoxychavicol acetate ([2]; Shampoo, storage time 0 w)
85 wt.-percent: stability of 2% solutions of 1-acetoxychavicol acetate ([2]; Olive oil, storage time 20 w) | stability of 2% solutions of 1-acetoxychavicol acetate ([2]; Peanut oil, storage time 20 w) | stability of 2% solutions of 1-acetoxychavicol acetate ([2]; Sesame oil, storage time 20 w)
35 wt.-percent: stability of 2% solutions of 1-acetoxychavicol acetate ([2]; Shampoo, storage time 6 w)
particularly stable: stability ([2]; solution in rapeseed oil) | stability ([2]; solution in sunflower oil)
55 wt.-percent: stability of 2% solutions of 1-acetoxychavicol acetate ([2]; Shampoo, storage time 3 w)
20 wt.-percent: stability of 2% solutions of 1-acetoxychavicol acetate ([2]; Aq. Ethanol, storage time 5 w) | stability of 2% solutions of 1-acetoxychavicol acetate ([2]; Shampoo, storage time 9 w)
95 wt.-percent: stability of 2% solutions of 1-acetoxychavicol acetate ([2]; Olive oil, storage time 7 w) | stability of 2% solutions of 1-acetoxychavicol acetate ([2]; Olive oil, storage time 8 w) | stability of 2% solutions of 1-acetoxychavicol acetate ([2]; Olive oil, storage time 9 w) | stability of 2% solutions of 1-acetoxychavicol acetate ([2]; Peanut oil, storage time 7 w) | stability of 2% solutions of 1-acetoxychavicol acetate ([2]; Peanut oil, storage time 8 w) | stability of 2% solutions of 1-acetoxychavicol acetate ([2]; Peanut oil, storage time 9 w) | stability of 2% solutions of 1-acetoxychavicol acetate ([2]; Sesame oil, storage time 7 w) | stability of 2% solutions of 1-acetoxychavicol acetate ([2]; Sesame oil, storage time 8 w) | stability of 2% solutions of 1-acetoxychavicol acetate ([2]; Sesame oil, storage time 9 w)
0 wt.-percent: stability of 2% solutions of 1-acetoxychavicol acetate ([2]; Aq. Ethanol, storage time 6 w) | stability of 2% solutions of 1-acetoxychavicol acetate ([2]; Aq. Ethanol, storage time 7 w) | stability of 2% solutions of 1-acetoxychavicol acetate ([2]; Aq. Ethanol, storage time 8 w) | stability of 2% solutions of 1-acetoxychavicol acetate ([2]; Aq. Ethanol, storage time 9 w) | stability of 2% solutions of 1-acetoxychavicol acetate ([2]; Aq. Ethanol, storage time 10 w) | stability of 2% solutions of 1-acetoxychavicol acetate ([2]; Aq. Ethanol, storage time 15 w) | stability of 2% solutions of 1-acetoxychavicol acetate ([2]; Aq. Ethanol, storage time 20 w) | stability of 2% solutions of 1-acetoxychavicol acetate ([2]; Shampoo, storage time 15 w) | stability of 2% solutions of 1-acetoxychavicol acetate ([2]; Shampoo, storage time 20 w)
25 wt.-percent: stability of 2% solutions of 1-acetoxychavicol acetate ([2]; Shampoo, storage time 8 w)
40 wt.-percent: stability of 2% solutions of 1-acetoxychavicol acetate ([2]; Shampoo, storage time 5 w)
90 wt.-percent: stability of 2% solutions of 1-acetoxychavicol acetate ([2]; HO Sunflower oil, storage time 20 w) | stability of 2% solutions of 1-acetoxychavicol acetate ([2]; Olive oil, storage time 10 w) | stability of 2% solutions of 1-acetoxychavicol acetate ([2]; Olive oil, storage time 15 w) | stability of 2% solutions of 1-acetoxychavicol acetate ([2]; Peanut oil, storage time 10 w) | stability of 2% solutions of 1-acetoxychavicol acetate ([2]; Peanut oil, storage time 15 w) | stability of 2% solutions of 1-acetoxychavicol acetate ([2]; Sesame oil, storage time 10 w) | stability of 2% solutions of 1-acetoxychavicol acetate ([2]; Sesame oil, storage time 15 w)
stable for several month: stability ([3]; solution with 30-40% ethanol, neutral pH, room temperature)
remains stable over months: stability [1]
50 wt.-percent: stability of 2% solutions of 1-acetoxychavicol acetate ([2]; Aq. Ethanol, storage time 3 w) | stability of 2% solutions of 1-acetoxychavicol acetate ([2]; Shampoo, storage time 4 w)
30 wt.-percent: stability of 2% solutions of 1-acetoxychavicol acetate ([2]; Aq. Ethanol, storage time 4 w) | stability of 2% solutions of 1-acetoxychavicol acetate ([2]; Shampoo, storage time 7 w)
no relevant degradation: degradation ([2]; 2% solution in vegetable oils, after 20 weeks of storage)
10 wt.-percent: stability of 2% solutions of 1-acetoxychavicol acetate ([2]; Shampoo, storage time 10 w)
at least 1 h: time stable ([3]; in vegetable oil, at up to 120°C)
60 wt.-percent: stability of 2% solutions of 1-acetoxychavicol acetate ([2]; Aq. Ethanol, storage time 2 w) | stability of 2% solutions of 1-acetoxychavicol acetate ([2]; Shampoo, storage time 2 w)
fast degradation: degradation ([2]; 2% solution in the shampoo formulation) | degradation ([2]; 2% solution in water (water ethanol 70:30))
